We go through seven compounds from PubChem BioAssay AID1053177 (The Scripps Research Institute Molecular Screening Center, 2014).

Activity calls are given as the source filed them.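 The calls were made as follows: active = EC50 of 10 µM or lower; inactive = EC50 above 10 µM.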

Chain of Trace amine-associated receptor 1 (Homo sapiens) (Q96RJ0 whole entry, looked up, the tested form may be a part): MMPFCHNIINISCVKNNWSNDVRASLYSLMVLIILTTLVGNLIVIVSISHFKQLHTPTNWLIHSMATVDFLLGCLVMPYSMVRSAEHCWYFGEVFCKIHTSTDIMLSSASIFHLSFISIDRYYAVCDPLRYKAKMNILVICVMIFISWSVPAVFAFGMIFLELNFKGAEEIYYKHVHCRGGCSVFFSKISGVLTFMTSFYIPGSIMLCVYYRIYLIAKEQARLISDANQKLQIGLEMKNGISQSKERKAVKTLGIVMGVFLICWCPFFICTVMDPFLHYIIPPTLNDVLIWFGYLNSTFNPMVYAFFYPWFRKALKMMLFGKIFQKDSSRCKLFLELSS

This experiment has as its target Trace amine-associated receptor 1 (Homo sapiens) (UniProt Q96RJ0). Briefly: activators of human TAAR1 receptor – cell-based, fluorescence, MDRUN002, late-stage follow-up (AID 1053177). Conditions: CHO TAAR1-HGA16 cells, cAMP TR-FRET, agonist.
With `N#Cc1c(C(F)(F)F)cc(-c2ccc(Cl)cc2)nc1SCC(=O)N1CCCCCC1`, the EC50 is > 37400 nM (inactive). In the case of `O=C(CCN1CCC(c2ccccc2)C1)c1ccccc1` (configuration not stated) it was 97.3 nM.

In the case of `N#Cc1c(C(F)(F)F)cc(-c2ccc(Cl)cc2)nc1SCC(=O)Nc1ncccn1`, the EC50 is > 37400 nM (inactive).

`CC(CN1CCCC1Cc1ccccc1)C(=O)c1ccc2c(c1)OCCO2` (configuration not stated): the EC50 was 438 nM.

Take `COc1cc(C(=O)CCN2CCC(c3ccccc3)C2)cc(OC)c1OC` (configuration not stated): the concentration giving a half-maximal response (EC50) was 131 nM. In the case of `Cc1ccc(C(=O)CCN2CCC(c3ccccc3)C2)cc1` (configuration not stated) it was 335 nM; in that of `N#Cc1c(C(F)(F)F)cc(-c2ccc(Cl)cc2)nc1SCC(=O)N1CCCC1`, > 37400 nM (inactive).

In general, EC50 refers to the concentration giving half of the maximal effect.
